Data: ChEMBL document CHEMBL3507680, “University of Dundee, Gates Library screen for HepG2 cell viability”

Experiment: Human HepG2 cell viability assay in 384 well format
Type: toxicity, cell-based
Set-up: dose 125 nL, time 70.5 hour; concentration not given beside the values
Conditions: HepG2 cells, read-out: Inhibition

Compound | cytotoxicity at 70.5 h
CC(C)(O)CSCCNC(=O)c1ccc(F)cc1Cl | -2.51%
CN(Cc1ccccc1NCc1cscn1)C(=O)c1cccs1 | -3.79%
CC(C(=O)N1CCOCC1)N1CCc2cncnc2C1 (stereo not given) | -4.71%
CCN1CCN(C(=O)C(C)N2CCc3cncnc3C2)CC1 (stereo not given) | -4.42%
Cc1cnc(CN(Cc2ccc(C#N)cc2F)C2CCN(C)C2)o1 (stereo not given) | -8.53%
O=C1NCCCCC1NS(=O)(=O)N1CCCCC1 (stereo not given) | -10.6%
Cc1cc(C)c2c(c1)C(NC(=O)CSCc1ccncc1)CCO2 (stereo not given) | -7.37%
CN(Cc1ccc(C#N)cc1)Cn1nccc1-c1cccnc1 | -4%
COc1ccccc1C(NC(=O)NC1CC1)c1noc(C)n1 (stereo not given) | -9%
COc1ccccc1C(NC(=O)C1CCCC1)c1noc(C)n1 (stereo not given) | 1.95%
COc1ccccc1C(NC(=O)C1CCC1)c1noc(C)n1 (stereo not given) | -5.9%
CCC(Nc1ccc(Oc2cccc(C#N)c2)cc1)C(N)=O (stereo not given) | -12.3%
Cn1nnc2cc(C(=O)NS(=O)(=O)c3ccc(F)cc3)ccc21 | -3.7%
OC[C@@H](O)CN(CCC(F)(F)F)c1ncc(Cl)cn1 | -4.91%
O=S(=O)(Nc1cn[nH]c1)c1ccc(F)c(Br)c1 | -4.68%
Cc1cnc(C(C)(C)NC(=O)NCc2ccc(C#N)cc2F)s1 | -5.64%
COc1ncccc1NC(=O)NC(C)(C)c1ncc(C)s1 | 16.5%
Cn1cnc2cc(C(=O)NS(=O)(=O)c3ccc(F)cc3)ccc21 | -5.36%
Cc1cnc(C(C)(C)NC(=O)NCc2ccon2)s1 | -9.99%
N#Cc1cccc(OCCCN2CCN(C(=O)c3ccoc3)CC2)c1 | -10%
OC(CN(Cc1ccccc1)Cc1cccnc1)c1ccco1 (stereo not given) | 14.4%
CCc1nn(C)c(CC)c1CNC(=O)Nc1cccc([S+](C)[O-])c1 (stereo not given) | 14.6%
CCc1nsc(NC2CC(=O)N(C3CC3)C2)n1 (stereo not given) | -0.811%

Compound | cytotoxicity at 70.5 h
COCC(C)(CCO)NC(=O)Nc1c(F)cccc1Br (stereo not given) | 1.51%
CCCc1noc(CS(=O)(=O)CC(=O)NC(C)CCC)n1 (stereo not given) | -5.83%
COCCCNC(=O)Nc1cccc2ncccc12 | 30.8%
CNS(=O)(=O)c1ccc(CNC(=O)c2cc(C)no2)cc1 | -11.9%
O=C(CCS(=O)(=O)C1CCCC1)NCCc1ccc2c(c1)OCCO2 | -2.36%
CCc1ncc(C(=O)N2CCn3c(CC)nnc3C2)s1 | -13.9%
CCc1nnc2n1CCN(C(=O)c1cnc(C3CC3)s1)C2 | -9.47%
CS(=O)(=O)CCC(=O)N(Cc1c(F)cccc1F)C1CCCC1 | 21%
CNS(=O)(=O)c1ccc(CNC(=O)c2cc(-c3ccccn3)no2)cc1 | -8.91%
CCC(CC)(CC(=O)OC)NC(=O)Nc1nnc(-c2ccccn2)s1 | 9.93%
Cc1cccc(C2CCCCN2C(=O)CCCS(C)(=O)=O)c1C (stereo not given) | -9.93%
CNS(=O)(=O)CC(=O)N(Cc1c(F)cccc1F)C1CCCC1 | 1.88%
CC(C)NC(=O)CN(C)C1CCN(c2cnc3ccccc3n2)CC1 | 20.5%
Cc1nsc(NC2CC(=O)N(C(C)(C)C)C2)n1 (stereo not given) | 11.5%
O=C(NCCCF)Nc1ccc2nc(N3CCOCC3)oc2c1 | 12.5%
CC(C)N(Cc1ccc(C#N)cc1)C(=O)Nc1ccccn1 | -7.3%
CN(CC1CCCCC1)C(=O)c1cn(C)nc1-c1cccnc1 | 3.52%
CCN(C)C(C(=O)Nc1ccc2c(c1)CCC(=O)N2)c1ccccc1 (stereo not given) | -15.5%
O=C1CCCN1CC1CCCCN1C(=O)Nc1cccnc1 (stereo not given) | -1.1%
CC/C=C(/C)C(=O)NCc1ccnc(OC2CCOCC2)c1 | -9.32%
O=S(=O)(CC1CCOCC1)NCc1ncc(-c2ccccc2)o1 | -5.19%
CCC(CC(=O)Nc1ccc2c(c1)CC(=O)N2)c1ccccc1 (stereo not given) | -6.03%
FC(F)(F)c1n[nH]c2c1CN(Cc1cn3ccccc3n1)CC2 | -6.32%

Compound | cytotoxicity at 70.5 h
Cc1nc(NC(=O)OC(C)(C)C)sc1C#N | -6.61%
O=C(Nc1ccc(F)cc1)N(CCC(F)(F)F)C[C@H](O)CO | -0.146%
CCN(CC)S(=O)(=O)N(C)Cc1ccncc1 | -8.49%
CC(CCN(C)C)NC(=O)N1CCSC(C)(C)C1 (stereo not given) | -1.34%
COc1cccc(NC(=O)N(CCC(F)(F)F)C[C@H](O)CO)c1 | -4.42%
CN(CC1CCCC1)C(=O)c1cn(C)nc1-c1cccnc1 | -3.43%
O=C(Nc1ccc(F)cc1F)N(CCC(F)(F)F)C[C@H](O)CO | -12.9%
CCOc1ccccc1CNC(=O)NCC(c1cnn(C)c1)N(C)C (stereo not given) | -9.13%
COCCc1noc(CN(C)c2cc(C)ncn2)n1 | 17.1%
c1cncc(OCCNC2Cc3ccccc3C2)c1 | -14.1%
CN(CC1CCOCC1)C(=O)NCCCN1CCCCC1 | -3.15%
Nc1nccnc1C(=O)N1CCN(CCOc2ccccc2)CC1 | 20.7%
COc1ccccc1COCC(O)CN(C)c1ccc(C)cc1C (stereo not given) | 15.1%
CC(=O)NCCC(=O)NC1(c2ccc(Cl)c(Cl)c2)CC1 | -3.79%
Cn1c(SCC(=O)NC(C)(C#N)C2CC2)nc2ccccc21 (stereo not given) | 0.675%
Cn1cc(C2CCCN2C(=O)Cn2ccc3ccc(Cl)cc32)cn1 (stereo not given) | 12.2%
Cc1cc(NC(=O)N(C)C2CCN(c3ccccc3F)C2=O)n(C)n1 (stereo not given) | -0.35%
Cc1cnn(CCNCCCOc2ccc3c(c2)OCO3)c1 | -0.972%
CN(CC(=O)NC(C)(C#N)C1CC1)Cc1nnc(C2CC2)n1C (stereo not given) | 1.7%
CC(C)c1nc(C2CCCN2c2ncc(C(N)=O)cc2Cl)no1 (stereo not given) | 12.4%
CN(CC(=O)NC(C)(C#N)C1CC1)Cc1nc2ccccc2n1C (stereo not given) | 4.49%
COCCNC(=O)NCCCOC1CCCc2ccccc21 (stereo not given) | 1.91%
Cc1nc(Cn2cc(I)cc(C)c2=O)oc1C | 2.15%

Compound | cytotoxicity at 70.5 h
O=C(CCc1ccsc1)N1CCC(C(=O)O)(c2ccccc2)CC1 | -0.12%
CN1CCN(C(=O)CCc2cccnc2)c2ccc(F)cc21 | 1.2%
FC(F)Oc1ccc(NCc2nc(C3CC3)no2)c(OC(F)F)c1 | 1.35%
Cc1cccc(NC(=O)CCNCc2c(C)nn(C)c2N(C)C)n1 | 2.77%
COc1ccc(COCC(O)CN(C)c2ccc(C)cc2C)cc1 (stereo not given) | 0.463%
COc1ccc2c(ccn2CC(=O)N2CCCC2Cn2cccn2)c1 (stereo not given) | 3.03%
Cc1cnn(CCNCCCOc2ccc(C#N)cc2)c1 | 3.37%
c1cnn(CCNCCCOc2ccc3c(c2)OCO3)c1 | 0.993%
CC1CN(Cc2ccccc2)CCCN1CCNS(C)(=O)=O (stereo not given) | -0.345%
Cc1cnn(CCCNC2Cc3ccccc3C2)c1 | 9.93%
CCC(C)NC(=O)CS(=O)(=O)Cc1cc(C)ccc1C (stereo not given) | -11.2%
CCc1noc(CS(=O)(=O)CC(=O)N2c3ccccc3CC2C)n1 (stereo not given) | -12.6%
CN(C)C(CNCc1nc(-c2ccsc2)no1)c1ccsc1 (stereo not given) | 4.31%
CN(C)c1ccc(NC(=O)N2CCCCCC2c2ccncc2)cn1 (stereo not given) | -10.6%
O=C(CNC(=O)c1cnc2ccccc2c1O)NCCn1ccnc1 | -6.04%
CCS(=O)(=O)CC(=O)NC(C)c1ccc(F)cc1F (stereo not given) | -6.32%
Cc1n[nH]cc1CNC1(c2ccc(Br)cc2)CC1 | -0.84%
Cc1n[nH]c(C2CN(Cc3csc(C4CCCCC4)n3)CCO2)n1 (stereo not given) | 0.0665%
CSCC(C)(O)CNc1ccccn1 (stereo not given) | -1.72%
Cc1cc(C)c(C(=O)NCCNc2ncnc3ccccc23)c(=O)[nH]1 | -2.04%
COc1ccccc1NC(=O)NCc1cn[nH]c1 | -7.77%
CNS(=O)(=O)c1csc(C(=O)N(C)Cc2sccc2C)c1 | -6.58%
CSCC(C)(O)CNc1ncccc1C(F)(F)F (stereo not given) | 1.25%

Compound | cytotoxicity at 70.5 h
CN(C)C(=O)CN1CCO[C@H]2CN(Cc3cccc(F)c3)C[C@H]21 | -8.07%
Cc1oncc1C(=O)N1CC[C@H]2[C@H]1CCN2S(C)(=O)=O | -1.36%
Cc1noc([C@@]23CCO[C@@H]2CCN(S(=O)(=O)c2cccnc2)C3)n1 | -6.17%
O=C(NCCc1cccc(F)c1)c1nc2c(s1)CCCN2C(=O)C1CC1 | -5.89%
Cc1ccc(N2CCc3ncnc(C4CC4)c3CC2)nn1 | 21.3%
c1cnc(N2CCO[C@H]3CN(CC4CCCC4)C[C@H]32)cn1 | 2.36%
COCCN1C(=O)CC(c2cccnc2)C12CCN(C)CC2 (stereo not given) | 0.172%
Cc1csc([C@@H]2C[C@@H]3CCN(Cc4cc(C)on4)C[C@H]3O2)n1 | -6.2%
Cc1noc([C@]23COC[C@H]2CN(C(=O)Cc2ccsc2)C3)n1 | -2.9%
Cc1cccc(CN2C[C@@H]3OCCN(CC(=O)N(C)C)[C@@H]3C2)c1 | -8.16%
CC(C)CN1C(=O)CC[C@]12CC[C@@H](NC(=O)NCc1cccnc1)CC2 | -3.62%
CCC(=O)Nc1ccc2c(c1)C1(CCOCC1)CN2CCOC | 13.5%
Cc1ccc(N2CC[C@@H]3[C@@H]2CCN3C(=O)Cc2ccsc2)nn1 | -4.23%
Cc1ccc(N2CC[C@@H]3[C@@H]2CCN3C(=O)Cc2cccs2)nn1 | -3.66%
CN(C)CCNC(=O)c1nc2c(s1)CCCN2C(=O)C1CC1 | -2.21%
O=C(c1ccncc1)N1CCOC2(CCCN(c3nncs3)C2)C1 (stereo not given) | -0.0919%
c1ccc(CN2Cc3nccn3CC(Cn3cccn3)C2)nc1 (stereo not given) | -3.5%
CC(=O)N1CCO[C@@H]2CN(Cc3cccc(Cl)c3)C[C@@H]2C1 | -2.75%
Cn1cc(CN2C[C@@H]3COC[C@]3(COCC3CC3)C2)cn1 | -5.3%
c1cnc(N2CCO[C@H]3CN(CC4CCC4)C[C@H]32)cn1 | -4.76%
Cn1ccnc1C(=O)N[C@@H]1CN(Cc2ccc(F)cc2)[C@@H]2CCCO[C@@H]21 | -3.63%
c1cnc(N2CCO[C@H]3CN(CC4CCOCC4)C[C@H]32)nc1 | -3.7%
c1cc(CN2CCN3C[C@H](Oc4cncnc4)C[C@H]3C2)ccn1 | -5.1%
